Data reported in ChEMBL document CHEMBL5518182, “Discovery and development of BI 1265162, an ENaC inhibitor for the treatment of cystic fibrosis” (Eur J Med Chem, 2024).
Calls of active or inactive are those of the source. No cut-off for these calls is given here.

How the values were obtained:
[1] = Clearance in Han Wistar rat assessed as liver blood flow at 0.5 umol/kg; format: ADME, tissue-based; details: in vivo, at 0.5 µmol/kg
[2] = Genotoxicity in Salmonella typhimurium TA100 incubated for 48 hrs in presence of rat liver S9 fraction by Ames test; format: toxicity, subcellular; details: salmonella enterica subsp. enterica serovar typhimurium, s9, 48 h
Cytochrome P450 2C9 = Cytochrome P450 2C9 (Homo sapiens, UniProt P11712); test: Inhibition of CYP2C9 in human liver microsomes using diclofenac as substrate in presence of NADPH by LC-MS/MS analysis; format: ADME, Microsome
Chain of Cytochrome P450 2C9 (P11712 whole entry): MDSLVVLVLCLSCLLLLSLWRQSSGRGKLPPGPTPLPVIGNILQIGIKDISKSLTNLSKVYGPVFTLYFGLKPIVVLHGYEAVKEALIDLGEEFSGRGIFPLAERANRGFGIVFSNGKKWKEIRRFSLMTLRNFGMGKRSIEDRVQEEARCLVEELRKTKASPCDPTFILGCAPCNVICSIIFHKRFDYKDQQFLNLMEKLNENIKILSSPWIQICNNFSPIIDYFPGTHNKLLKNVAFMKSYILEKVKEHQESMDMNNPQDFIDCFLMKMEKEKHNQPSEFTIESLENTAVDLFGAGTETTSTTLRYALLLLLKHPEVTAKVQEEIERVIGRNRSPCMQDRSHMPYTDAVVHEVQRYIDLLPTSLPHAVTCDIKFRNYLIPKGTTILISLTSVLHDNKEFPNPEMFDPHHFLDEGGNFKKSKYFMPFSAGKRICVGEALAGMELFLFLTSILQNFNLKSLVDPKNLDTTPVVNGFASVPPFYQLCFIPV

[3] = Permeability across apical to basal side in human Caco-2 cells by LC-MS/MS analysis; format: ADME, cell-based; details: read-out: permeability
[4] = Metabolic stability in human liver microsomes assessed as liver blood flow at 1 uM by LC-MS/MS analysis; format: ADME, Microsome; details: read-out: QH
Cytochrome P450 1A2 = target: T1, Cytochrome P450 1A2 (Homo sapiens, UniProt P05177); test: Inhibition of CYP1A2 in human liver microsomes in presence of NADPH by LC-MS/MS analysis; format: ADME, Microsome
T1 sequence (P05177 whole entry): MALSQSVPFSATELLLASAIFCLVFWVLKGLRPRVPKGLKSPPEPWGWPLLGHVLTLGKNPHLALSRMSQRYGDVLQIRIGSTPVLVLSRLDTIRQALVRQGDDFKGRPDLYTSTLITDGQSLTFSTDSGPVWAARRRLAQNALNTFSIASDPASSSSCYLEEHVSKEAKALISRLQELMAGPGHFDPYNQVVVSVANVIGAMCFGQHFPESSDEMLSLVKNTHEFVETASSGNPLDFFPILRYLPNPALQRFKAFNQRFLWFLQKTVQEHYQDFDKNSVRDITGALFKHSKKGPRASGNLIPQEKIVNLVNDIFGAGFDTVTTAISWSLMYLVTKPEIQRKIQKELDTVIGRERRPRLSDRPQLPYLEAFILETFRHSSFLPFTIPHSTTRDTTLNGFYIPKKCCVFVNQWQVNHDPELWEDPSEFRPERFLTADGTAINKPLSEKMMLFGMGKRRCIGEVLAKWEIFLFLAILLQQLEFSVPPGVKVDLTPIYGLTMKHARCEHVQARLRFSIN

[5] = Inhibition of ENaC in mouse M1 cells upto 10 uM by chamber assay; format: cell-based; details: m1 cell
[6] = Metabolic stability in human hepatocytes assessed as liver blood flow at 1 uM incubated for 6 hrs by HPLC-MS/MS analysis; format: ADME, cell-based, Hepatocyte; details: read-out: QH
[7] = Cytotoxicity against rat hepatocytes by LDH assay; format: toxicity, cell-based, Hepatocyte
[8] = Lipophilicity, logD of compound at pH 7.4; format: physicochemical; details: buffer
Cytochrome P450 2D6 = Cytochrome P450 2D6 (Homo sapiens, UniProt P10635); test: Inhibition of CYP2D6 in human liver microsomes using dextromethorphan as substrate in presence of NADPH by LC-MS/MS analysis; format: ADME, Microsome
Chain of Cytochrome P450 2D6 (P10635 whole entry): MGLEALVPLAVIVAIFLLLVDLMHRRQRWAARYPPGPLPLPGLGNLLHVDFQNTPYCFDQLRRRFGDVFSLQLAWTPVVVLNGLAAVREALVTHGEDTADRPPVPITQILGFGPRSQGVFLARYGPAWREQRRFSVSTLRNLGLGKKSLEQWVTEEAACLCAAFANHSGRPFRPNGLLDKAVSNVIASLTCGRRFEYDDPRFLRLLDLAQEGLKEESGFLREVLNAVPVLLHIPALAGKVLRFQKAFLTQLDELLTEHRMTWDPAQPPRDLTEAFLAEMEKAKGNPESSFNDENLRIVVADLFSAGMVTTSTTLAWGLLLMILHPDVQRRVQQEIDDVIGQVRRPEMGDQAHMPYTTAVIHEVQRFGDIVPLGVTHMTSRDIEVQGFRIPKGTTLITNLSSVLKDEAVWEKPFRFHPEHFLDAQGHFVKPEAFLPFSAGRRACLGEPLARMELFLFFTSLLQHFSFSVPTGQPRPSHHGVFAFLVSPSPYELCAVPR

Rattus norvegicus [9] = test: Effect on Han Wistar rat model of lung fluid absorption at ED70 administered intratracheally measured after 20 hrs; format: functional; details: route it(Intratracheal)
[10] = Permeability across basal to apical side in human Calu-3 cells at 0.1 to 300 uM measured upto 2 hrs by HPLC-MS/MS analysis; format: ADME, cell-based; details: dose 0.1-300 µM, read-out: permeability
[11] = MRT in Han Wistar rat; format: ADME; details: in vivo
[12] = Permeability of compound by PAMPA assay; format: ADME; details: read-out: permeability
M1 cell = test: Inhibition of ENaC-mediated water resorption in mouse M1 cells at 3 uM by radiometric dilution assay relative to control; format: cell-based
Cytochrome P450 3A4 = Cytochrome P450 3A4 (Homo sapiens, UniProt P08684); test: Inhibition of CYP3A4 in human liver microsomes using midazolam as substrate in presence of NADPH by LC-MS/MS analysis; format: ADME, Microsome
Chain of Cytochrome P450 3A4 (P08684 whole entry): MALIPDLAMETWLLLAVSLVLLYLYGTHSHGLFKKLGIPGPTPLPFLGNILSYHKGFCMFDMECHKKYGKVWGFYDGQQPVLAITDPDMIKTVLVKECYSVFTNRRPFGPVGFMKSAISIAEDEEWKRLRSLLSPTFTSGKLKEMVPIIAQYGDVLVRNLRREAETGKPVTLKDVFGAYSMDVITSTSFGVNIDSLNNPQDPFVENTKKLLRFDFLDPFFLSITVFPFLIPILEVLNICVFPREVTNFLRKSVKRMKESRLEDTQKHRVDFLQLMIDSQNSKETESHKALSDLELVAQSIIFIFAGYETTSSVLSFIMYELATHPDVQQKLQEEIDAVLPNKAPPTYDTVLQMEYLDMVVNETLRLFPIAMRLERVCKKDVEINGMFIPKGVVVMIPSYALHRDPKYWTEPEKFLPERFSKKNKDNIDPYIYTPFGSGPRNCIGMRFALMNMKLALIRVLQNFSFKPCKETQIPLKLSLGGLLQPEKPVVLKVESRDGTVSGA

Lung [13] = test: Inhibition of lung water resorption in Wistar rat at 3 ug/kg, IT(Intratracheal) incubated for 3 hrs relative to control; format: functional
[14] = Metabolic stability in rat liver microsomes assessed as liver blood flow at 1 uM by LC-MS/MS analysis; format: ADME, Microsome; details: read-out: QH
[15] = Solubility of compound at pH 5; format: physicochemical; details: buffer
[16] = Genotoxicity in Escherichia coli WP2 uvrA (pKM 101) incubated for 48 hrs in presence of rat liver S9 fraction by Ames test; format: toxicity, subcellular; details: s9, 48 h
[17] = Metabolic stability in rat hepatocytes assessed as liver blood flow at 1 uM incubated for 6 hrs by HPLC-MS/MS analysis; format: ADME, cell-based, Hepatocyte; details: read-out: QH
[18] = Cytotoxicity against human U-937 cells by MTT assay; format: toxicity, cell-based
Rattus norvegicus [19] = test: Acute effect on Han Wistar rat model of lung fluid absorption administered intratracheally measured after 3 hrs; format: functional; details: route it(Intratracheal)
Lung [20] = test: Inhibition of lung water resorption in Wistar rat at 0.3 ug/kg, IT(Intratracheal) incubated for 3 hrs relative to control; format: functional
[21] = Genotoxicity in Salmonella typhimurium TA98 incubated for 48 hrs in presence of rat liver S9 fraction by Ames test; format: toxicity, subcellular; details: salmonella enterica subsp. enterica serovar typhimurium, s9, 48 h
[22] = Drug uptake in Han Wistar rat lung at 10 ug/kg, IT(Intratracheal) measured after 3 hrs by HPLC-TMS analysis; format: ADME, tissue-based; details: in vivo, inhaled_or_intranasal, 0.01 mg/kg, dose 10 µg/kg
[23] = Genotoxicity in Salmonella typhimurium TA1535 incubated for 48 hrs in presence of rat liver S9 fraction by Ames test; format: toxicity, subcellular; details: salmonella enterica subsp. enterica serovar typhimurium, s9, 48 h
[24] = Cytotoxicity against human 16HBE14o- cells by plasma damage based analysis; format: toxicity, cell-based
Rattus norvegicus [25] = organism: Rattus norvegicus; test: Upregulation of serum potassium level in Han Wistar rat; format: functional, organism-based
[26] = target: Acetylcholinesterase (Homo sapiens) (UniProt P22303); test: Inhibition of AChE (unknown origin) at 10 uM relative to control
Rattus norvegicus [27] = test: Upregulation of serum aldosterone level in Han Wistar rat model of lung fluid absorption at 3 ug/kg, IT(Intratracheal) measured after 3 hrs relative to control; format: functional; details: dose 3 µg/kg
[28] = Genotoxicity in Salmonella typhimurium TA1537 incubated for 48 hrs in presence of rat liver S9 fraction by Ames test; format: toxicity, subcellular; details: salmonella enterica subsp. enterica serovar typhimurium, s9, 48 h
Cytochrome P450 2C19 = Cytochrome P450 2C19 (Homo sapiens, UniProt P33261); test: Inhibition of CYP2C19 in human liver microsomes using (S)-mephenytoin as substrate in presence of NADPH by LC-MS/MS analysis; format: ADME, Microsome
Chain of Cytochrome P450 2C19 (P33261 whole entry): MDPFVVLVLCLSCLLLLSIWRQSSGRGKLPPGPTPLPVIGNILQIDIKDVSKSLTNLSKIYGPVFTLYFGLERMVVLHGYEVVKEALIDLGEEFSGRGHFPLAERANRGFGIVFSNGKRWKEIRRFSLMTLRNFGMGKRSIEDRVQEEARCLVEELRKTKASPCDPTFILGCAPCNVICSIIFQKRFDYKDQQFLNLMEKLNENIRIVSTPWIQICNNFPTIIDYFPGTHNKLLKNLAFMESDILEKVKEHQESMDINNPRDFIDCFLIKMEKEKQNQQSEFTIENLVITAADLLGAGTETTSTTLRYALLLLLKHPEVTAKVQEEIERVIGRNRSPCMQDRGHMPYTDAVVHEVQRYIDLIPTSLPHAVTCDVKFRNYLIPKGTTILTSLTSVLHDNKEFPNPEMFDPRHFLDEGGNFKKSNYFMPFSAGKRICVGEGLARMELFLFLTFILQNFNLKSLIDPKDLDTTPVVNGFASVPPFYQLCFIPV

CaV3.1 = CaV3.1 (Homo sapiens, UniProt O43497); test: Inhibition of CaV3.1 (unknown origin) at 10 uM relative to control; format: toxicity
BK channel = BK channel (Homo sapiens, UniProt Q12791); test: Inhibition of BK channel (unknown origin) at 10 uM relative to control; format: toxicity
Chain of BK channel (Q12791 whole entry): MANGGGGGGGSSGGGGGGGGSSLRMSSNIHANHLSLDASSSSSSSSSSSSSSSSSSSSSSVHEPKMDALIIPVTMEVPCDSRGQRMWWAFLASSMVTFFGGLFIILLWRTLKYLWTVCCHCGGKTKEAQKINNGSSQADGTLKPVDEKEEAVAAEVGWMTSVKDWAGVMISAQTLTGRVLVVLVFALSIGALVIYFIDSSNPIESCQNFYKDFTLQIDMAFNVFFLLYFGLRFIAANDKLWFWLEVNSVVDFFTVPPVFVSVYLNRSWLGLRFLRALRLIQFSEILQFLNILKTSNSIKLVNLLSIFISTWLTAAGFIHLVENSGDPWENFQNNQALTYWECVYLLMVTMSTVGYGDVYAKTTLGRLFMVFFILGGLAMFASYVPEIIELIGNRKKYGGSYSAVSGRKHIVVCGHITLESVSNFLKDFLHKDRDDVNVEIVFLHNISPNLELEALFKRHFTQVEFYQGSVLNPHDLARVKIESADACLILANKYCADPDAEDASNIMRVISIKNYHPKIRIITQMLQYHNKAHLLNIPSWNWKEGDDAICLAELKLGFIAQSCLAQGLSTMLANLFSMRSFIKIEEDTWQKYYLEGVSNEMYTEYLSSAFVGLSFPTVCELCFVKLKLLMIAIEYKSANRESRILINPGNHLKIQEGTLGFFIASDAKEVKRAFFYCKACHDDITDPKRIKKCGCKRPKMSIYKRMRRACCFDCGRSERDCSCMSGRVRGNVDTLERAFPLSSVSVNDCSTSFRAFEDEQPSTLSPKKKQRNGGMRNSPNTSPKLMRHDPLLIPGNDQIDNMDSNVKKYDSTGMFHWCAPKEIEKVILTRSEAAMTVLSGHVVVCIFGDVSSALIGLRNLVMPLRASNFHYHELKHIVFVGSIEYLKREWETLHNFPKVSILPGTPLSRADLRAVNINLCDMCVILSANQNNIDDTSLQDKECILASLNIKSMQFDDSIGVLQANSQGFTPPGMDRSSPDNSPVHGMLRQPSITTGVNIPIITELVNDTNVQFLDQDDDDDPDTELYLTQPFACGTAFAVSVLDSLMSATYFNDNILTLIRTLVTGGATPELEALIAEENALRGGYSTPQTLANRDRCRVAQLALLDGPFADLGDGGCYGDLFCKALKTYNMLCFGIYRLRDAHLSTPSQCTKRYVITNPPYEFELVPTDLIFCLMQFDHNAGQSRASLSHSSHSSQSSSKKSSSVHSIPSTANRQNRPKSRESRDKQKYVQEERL

CaV3.2 = CaV3.2 (Homo sapiens, UniProt O95180); test: Inhibition of CaV3.2 (unknown origin) at 10 uM relative to control; format: toxicity
[29] = Drug uptake in Han Wistar rat lung at 8 ug/kg, IT(Intratracheal) measured after 3 hrs by HPLC-TMS analysis; format: ADME, tissue-based; details: in vivo, inhaled_or_intranasal, 0.008 mg/kg, dose 8 µg/kg
[30] = Oral bioavailability in Han Wistar rat; format: ADME, organism-based; details: in vivo
CFTR = CFTR (Homo sapiens, UniProt P13569); test: Inhibition of CFTR (unknown origin) at 10 uM relative to control; format: toxicity
Chain of CFTR (P13569 whole entry): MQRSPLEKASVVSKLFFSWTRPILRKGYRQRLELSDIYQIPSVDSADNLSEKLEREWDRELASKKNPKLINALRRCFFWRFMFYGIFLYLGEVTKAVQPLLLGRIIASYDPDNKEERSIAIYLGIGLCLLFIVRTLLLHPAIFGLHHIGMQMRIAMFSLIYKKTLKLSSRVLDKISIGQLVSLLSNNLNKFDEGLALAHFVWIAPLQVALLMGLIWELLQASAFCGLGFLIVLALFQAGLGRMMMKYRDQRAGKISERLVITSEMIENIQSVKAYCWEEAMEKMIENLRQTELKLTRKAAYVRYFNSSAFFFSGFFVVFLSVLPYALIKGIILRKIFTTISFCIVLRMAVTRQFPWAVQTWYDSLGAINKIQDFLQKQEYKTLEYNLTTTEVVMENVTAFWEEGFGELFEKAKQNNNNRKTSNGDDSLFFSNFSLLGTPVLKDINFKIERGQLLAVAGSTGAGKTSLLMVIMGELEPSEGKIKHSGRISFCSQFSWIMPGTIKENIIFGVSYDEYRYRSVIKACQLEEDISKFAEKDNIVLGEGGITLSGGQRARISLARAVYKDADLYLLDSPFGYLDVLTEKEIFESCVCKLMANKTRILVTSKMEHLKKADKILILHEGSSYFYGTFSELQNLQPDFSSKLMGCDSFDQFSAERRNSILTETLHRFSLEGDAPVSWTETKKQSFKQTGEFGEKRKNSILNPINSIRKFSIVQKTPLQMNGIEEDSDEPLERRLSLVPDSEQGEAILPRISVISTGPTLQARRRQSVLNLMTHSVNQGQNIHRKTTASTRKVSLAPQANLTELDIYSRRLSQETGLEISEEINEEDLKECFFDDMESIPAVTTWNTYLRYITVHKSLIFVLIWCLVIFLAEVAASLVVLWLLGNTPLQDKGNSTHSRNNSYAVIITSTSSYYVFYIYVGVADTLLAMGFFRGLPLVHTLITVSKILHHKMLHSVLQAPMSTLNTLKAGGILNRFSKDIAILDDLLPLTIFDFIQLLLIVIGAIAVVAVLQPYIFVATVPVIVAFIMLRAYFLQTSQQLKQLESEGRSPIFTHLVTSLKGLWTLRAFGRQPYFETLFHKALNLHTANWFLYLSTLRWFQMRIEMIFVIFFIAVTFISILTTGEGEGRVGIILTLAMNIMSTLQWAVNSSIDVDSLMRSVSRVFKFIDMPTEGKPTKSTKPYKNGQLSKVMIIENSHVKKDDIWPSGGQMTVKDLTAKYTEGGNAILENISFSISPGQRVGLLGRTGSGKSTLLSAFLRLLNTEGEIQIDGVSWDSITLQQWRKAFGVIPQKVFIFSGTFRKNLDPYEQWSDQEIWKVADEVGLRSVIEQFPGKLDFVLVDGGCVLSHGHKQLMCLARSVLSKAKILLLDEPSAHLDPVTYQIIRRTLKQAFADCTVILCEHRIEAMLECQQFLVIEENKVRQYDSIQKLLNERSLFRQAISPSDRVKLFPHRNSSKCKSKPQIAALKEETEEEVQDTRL

Compound	QH [1] [%]	Activity [2]	IC50 (Cytochrome P450 2C9) [µM]	Papp A→B [3] [×10⁻⁶ cm/s]	hepatic extraction ratio at 1 µM [4]	IC50 (Cytochrome P450 1A2) [µM]	hepatic extraction ratio at 6 h, 1 µM [6]	IC50 [7] [µM]	logD [8]	IC50 (Cytochrome P450 2D6) [µM]	Papp B→A at 2 h, up to 300 µM [10] [×10⁻⁶ cm/s]	MRT [11] [min]	Papp [12] [×10⁻⁶ cm/s]	IC50 (Cytochrome P450 3A4) [µM]	hepatic extraction ratio at 1 µM [14]	solubility [15] [%]	Activity [16]	hepatic extraction ratio at 6 h, 1 µM [17]	IC50 [18] [µM]	Activity [21]	other results
CCn1c(CNC(=O)c2nc(Cl)cnc2N)[n+](CC)c2ccc(C(=O)N(C)CCN(C)C)cc21	84	Non-Toxic	> 50	< 0.2	< 0.23	> 50	0.2	> 800	0.2	> 50	< 0.21	18	< 0.02	> 50	< 0.23	> 2	Non-Toxic	0.2	> 800	Non-Toxic	IC50 [5]: 6.2 nM; Efficacy (Rattus norvegicus [9]): 39%; inhibition (M1 cell): 81%; inhibition in vivo at 0.003 mg/kg (Lung [13]): 33%; ED50 (Rattus norvegicus [19]): 0.1 µg/kg; ED70 (Rattus norvegicus [19]): 0.13 µg/kg; inhibition in vivo at 0.0003 mg/kg (Lung [20]): 27%; Drug uptake [22]: 55%; Activity [23]: Non-Toxic; IC50 [24]: > 800 µM; Activity (Rattus norvegicus [25]): inactive; inhibition [26]: 44%; Activity (Rattus norvegicus [27]): <25%; Activity [28]: Non-Toxic; IC50 (Cytochrome P450 2C19): > 50 µM
CCn1c(CNC(=O)c2nc(Cl)cnc2N)[n+](CC)c2ccc(OCC(=O)NCCOCP(C)(C)=O)cc21	79	Non-Toxic	> 50	0.6	< 0.23	> 50	0.17	> 800	0.1	> 50	0.37	18	< 0.05	> 50	< 0.23	> 5	Non-Toxic	0.28	> 800	Non-Toxic	inhibition at 10 µM (CaV3.1): < 50%; inhibition at 10 µM (BK channel): < 50%; inhibition at 10 µM (CaV3.2): < 50%; Activity [23]: Non-Toxic; IC50 [24]: > 800 µM; Drug uptake [29]: 26%; bioavailability [30]: < 5%; inhibition at 10 µM (CFTR): < 50%; Activity [28]: Non-Toxic; IC50 (Cytochrome P450 2C19): > 50 µM
